The values below come from the NIST ThermoML archive (doi:10.1021/acs.jced.8b00663).

± gives the expanded uncertainty stated by the source.

The conditions of data set [1]: Crystal; DTA.
A short description of data set [2]: Molar enthalpy of transition or fusion. To be noted: Crystal; DSC.

For the compound `CCOC(=O)C1=C[C@]2(CC)CCCN3CCc4c(n1c1ccccc41)[C@@H]32` [vinpocetine], in data set [1], the Normal melting temperature worked out at 149.00 ± 1.1 °C. The “Molar enthalpy of transition or fusion” value in data set [2] was found to be 37.4 ± 1.7 kJ/mol.
